Results published in PMC4047093, “Structural Insights into SraP-Mediated Staphylococcus aureus Adhesion to Host Cells” (PLoS Pathogens, 2014).

What was measured:
[1] = biological target: L-lectin module of SraP (Staphylococcus aureus, UniProt Q2FUW1); assay: SPR (Biacore […]), steady state, […] Langmuir fit; assay type: binding; conditions: 10 mM HEPES pH 7.5, 150 mM NaCl, 0.005% Tween 20, 25 °C; protein immobilised on CM5 chip; Neu5Ac 0.12-10 mM
[2] = biological target: the molecule itself; assay: SEC; Superdex 75 column, CDHL-1&2 against protein markers of 67, 44, 25, 17 and 13.7 kDa

Sequence of L-lectin module of SraP (Q2FUW1 245-491): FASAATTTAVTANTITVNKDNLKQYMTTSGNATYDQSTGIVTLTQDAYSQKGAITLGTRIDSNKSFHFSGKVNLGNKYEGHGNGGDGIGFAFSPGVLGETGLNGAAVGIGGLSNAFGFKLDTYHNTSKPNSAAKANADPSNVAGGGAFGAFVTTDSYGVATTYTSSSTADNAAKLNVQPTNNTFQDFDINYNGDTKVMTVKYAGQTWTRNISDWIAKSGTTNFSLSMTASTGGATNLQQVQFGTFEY

CC(=O)N[C@H]1[C@H]([C@H](O)[C@H](O)CO)OC(O)(C(=O)O)C[C@@H]1O (some centres unmarked) [N-acetylneuraminic acid]
Kd [1]: 540 µM

B1: CDHL-1&2 (tandem cadherin-like modules of SraP, Ala576–Asn751) (domain or fragment)
chain: APTVTVGNQTIEVGKTMNPIVLTTTDNGTGTVTNTVTGLPSGLSYDSATNSIIGTPTKIGQSTVTVVSTDQANNKSTTTFTINVVDTTAPTVTPIGDQSSEVYSPISPIKIATQDNSGNAVTNTVTGLPSGLTFDSTNNTISGTPTNIGTSTISIVSTDASGNKTTTTFKYEVTRN
notes: modules CDHL-1 and CDHL-2, residues Ala576–Asn751; Lacks the two Ca-2 coordinating residues Asp573 and Lys575; also called CDHL-1&2 modules; tandem CDHL modules; source: E. coli BL21, purified (Ni-NTA, Superdex 200 or Superdex 75)
stoichiometry N [2]: 2
